Assay results: patent publication US11311541B2 (priority 2014, dated 2022)
Entries after “also recorded” stand apart in the source; their conditions may differ. Like-named read-outs stand apart in the source and are kept apart here. Values belong to the compound of their own block, whether it stands above or below them.

What was measured:
[1] = target: T1, ROCK2 (Homo sapiens (Human), UniProt O75116); conditions: read-out: ROCK2 IC50
Description: (§2) Dose response curves for Rho-kinase inhibition were derived from a Invitrogen Z′-LYTE™ Kinase Assay Kit (Invitrogen catalog number PV3793). Purified active ROCK1 and ROCK2 were obtained from Invitrogen (catalog numbers ROCK1, PV3691 and ROCK2, PV3759). The kit components include a coumarin and fluorescein labeled peptide based on myosin light chain 2 ([sequence]), a proprietary protease containing development reagent and a proprietary Stop buffer used to terminate the development reaction. The inhibitory activities of compounds are measured according to the manufactures protocol. […] This mixture is overlayed into a white 96-well half area plate and the reaction is initiated with the addition of 5 uM ATP for ROCK1 or 12 uM ATP for ROCK2. The assay proceeds at room temperature for 1 hour followed by the addition of development reagent, and further incubation for 1 hour at room temperature. STOP reagent is then added and the reaction and immediately the coumarin and fluorescein emission signals are read on a Tecan Infinite M1000 fluorescence plate reader (excitation: 400 nm; emission 445 and 520 nm, respectively). By comparing the emission ratios of the test samples against control samples, percent phosphorylation values are calculated and the concentration of inhibitor that produces ½ inhibition of kinase activity (IC50) is determined using Prism.

[2] = target: ROCK1 (Homo sapiens (Human), UniProt Q13464); format: biochemical
Description: as §2

[3] = test system: cytokine secretion; assay: cytokine secretion, FIG. 10; format: cell-based
[4] = target: T1, ROCK2; assay: biochemical
Description: as §2

[5] = test system: sclerodermatous cGVHD mouse model; assay: sclerodermatous cGVHD mouse model (B10.D2 into BALB/c); format: in vivo
Description: In this model, BALB/c (H-2^d) mice received 775 cGy of total body radiation on day 0 and were transplanted with bone marrow and T-cells from B10.D2 (H-2^d) mice. […] The GVHD score in this model combined changes in weight lost, posture, activity, fur texture, and skin integrity (FIG. 26). Sclerodermatous cGVHD mice were further analyzed as depicted in FIGS. 27-35.

[6] = test system: CD4+CD25+ human Tregs; assay: Treg inhibition of IL-17 secretion in CD4+CD25- T cells; format: cell-based; conditions: Tregs treated 3 hours; Treg:Teff 1:4 and 1:9
[7] = test system: STAT3 phosphorylation; assay: STAT3 phosphorylation in T cells; format: cell-based, human
Experimental: STAT3 plays a critical role in Th17 differentiation via regulation of RORγt expression and direct binding to the IL-17 and IL-21 promoters. […] In a different experiment, cells were cultured under Th17-skewing conditions for 5 days and then treated with the ROCK2 selective inhibitor for 3 hours.

[8] = test system: STAT3/STAT5 phosphorylation, RORγt, IRF4, Bcl6 in spleens; assay: Western blot of spleen cells, murine model of cGVHD; format: in vivo, mouse; conditions: treatment days 28-56
Experimental: Mice were treated as described above, except that twelve animals per group were tested. […] (n=3/group). Spleens were also collected for analysis on day 56. […] Single cell suspensions were prepared from the isolated spleens. Cells were lysed in RIPA buffer and analyzed for protein content. Sample buffer was then added, and, after boiling, the samples, containing equal amounts of proteins, were separated by SDS-PAGE gel electrophoresis and transferred to a nitrocellulose membrane. Membranes were blocked and probed with specific antibodies overnight. Actin was used as a loading control. Anti-pSTAT3 pSTAT5 and Bcl6 antibodies were purchased from Cell Signaling Technologies (Beverly, Mass.). Anti-IRF4 (sc-48338) and anti-RORγt (14-6988) were obtained from Santa Cruz Biotechnology Inc. and eBioscience respectively. Immunoreactive protein bands were visualized using an HRP-conjugated secondary antibodies and an enhanced ECL system.

[9] = test system: murine model of chronic GVHD; assay: germinal centers and Tfh cells in spleen, murine model of chronic GVHD; format: in vivo, mouse; conditions: 150 mg/kg
Experimental: Fixed 6-μm spleen cryosections of mice were stained with rhodamine-conjugated peanut agglutinin (PNA; Vector Laboratories), and the size of the PNA-positive sections was measured and defined as germinal centers. For flow cytometric analysis of Tfh cells and GC B cells, single-cell suspensions from spleens were obtained and labeled with anti-CD4, anti-CXCR5, and anti-PD1 antibodies (eBioscience). Cells were analyzed on a BD LSRFortessa cell analyzer.

[10] = test system: CD4+ T cells from RA patients; assay: cytokine secretion ex vivo in CD4+ T cells from RA patients; format: cell-based, human
Description: Among RA patients, inhibition of IFN-γ production was correlated with disease activity score (DAS). (FIG. 12B).

[11] = test system: human CD4+ T cells; assay: Foxp3+ cells among CD4+ T cells; format: cell-based; conditions: 5 days of Th17 skewing activation
Description: Foxp3 is a lineage-specific transcription factor for Tregs and is crucial to the development and inhibitory function of these cells. STAT5 signaling positively regulates the induction and stabilization of Foxp3 expression in T cells in vitro and in vivo. […] (FIG. 14).

[12] = test system: CD4+ human T cells; assay: T cell proliferation in response to TCR stimulation in vitro; format: cell-based
Description: (§1) Activation of resting T cells, resulting in cytokine secretion and proliferation, involves two distinct signals from antigen-presenting cells (APCs), mimicked by co-stimulation of the T cell receptor (TCR)/CD3 complex and the CD28 receptor.

[13] = test system: murine model of chronic GVHD; assay: murine model of chronic GVHD, lung pathology
Experimental: On day −1, recipients received total-body irradiation (TBI) by X-ray (8.5 Gy). Donor bone marrow (BM) was T-cell depleted with anti-Thy 1.2 mAb followed by rabbit complement. On day 0, recipients received 10^7 BM cells with or without allogeneic splenocytes (10^6 cells). Weights of individual mice were recorded twice weekly. […] The analysis of pulmonary function was performed on day 28 (before the treatment) and on day 56. Anesthetized mice were weighed, and lung function was assessed by wholebody plethysmography with the Flexivent system (SCIREQ) and analyzed with Flexivent Version 5.1 software. Survival data were analyzed by life-table methods, and actuarial survival rates are shown. Group comparisons were made by log-rank test.
Lungs were inflated by infusion of 1 mL of optimal cutting temperature compound:PBS (3:1) intratracheally prior to harvest. Six-micrometer cryosections were fixed for 5 minutes in acetone and stained with mMasson's trichrome staining kit (Sigma-Aldrich) for detection of collagen deposition. Collagen deposition was quantified on trichrome-stained sections as a ratio of area of blue staining to area of total staining by use of the Adobe mPhotoshop CS3 analysis tool (Adobe Systems). For measuring Ig deposition, acetone-fixed 6-m lung cryosections were blocked with horse serum and streptavidin-biotin blocking kit (Vector) and stained with fluorescein isothiocyanate (FITC)-labeled anti-mouse-Ig (BD Pharmingen). Antibody deposition was quantified by area of Ig staining per 100-μm section.
Mice were treated as described above, except that twelve animals per group were tested. […] (n=3/group). Spleens were also collected for analysis on day 56. […] Pulmonary function tests and analysis of body weight were performed as described above.

[14] = test system: PBMCs of treated patients; assay: ex vivo stimulation of cytokine production in PBMCs isolated from treated patients; parameters: species or system human; conditions: 120 mg/day, days 1 and 8-14; anti-CD3/CD28 72 hours
Experimental: Peripheral blood mononuclear cells (PBMCs) were collected at the start and end of the trial and stimulated by plating on immobilized anti-CD3/CD28 antibodies for 72 hours, and levels of IL-17, IL-21, and IFN-γ were measured. […] No effect on IFN-γ was observed.

[15] = plasma KD025 concentration in murine chronic GVHD; format: in vivo, mouse; conditions: day 56, 1-hr pre-dose and 1-hr post-dose
Experimental: Mice were treated as described above, except that twelve animals per group were tested. […] (n=3/group).

[16] = test system: TGF-β-induced STAT3, MLC and SMAD2/3 phosphorylation; assay: TGF-β-induced phosphorylation in Tregs; format: cell-based
Description: (FIG. 16). TGF-3 is involved in development and function of both Th17 and Treg subsets of T cells. However, when Tregs are regulated in Smad2/3-dependent signaling mechanism, TGF-β regulates Th17 cells in Smad2/3 independent manner that is considered as non-canonical TGF-β-induced signaling.

[17] = test system: CD4+ human T cells; assay: cytokine secretion of anti-CD3/CD28 stimulated CD4+ T cells in vitro; format: cell-based; conditions: anti-CD3/CD28 stimulation
Description: as §1

[18] = Table 3 (Example 203, method not given)
[19] = 2 RA patients, intracellular staining
[20] = RA patients, anti-CD3/CD28, ex vivo
[21] = day 98, 42 days after last administration

T1 sequence (O75116 1-552): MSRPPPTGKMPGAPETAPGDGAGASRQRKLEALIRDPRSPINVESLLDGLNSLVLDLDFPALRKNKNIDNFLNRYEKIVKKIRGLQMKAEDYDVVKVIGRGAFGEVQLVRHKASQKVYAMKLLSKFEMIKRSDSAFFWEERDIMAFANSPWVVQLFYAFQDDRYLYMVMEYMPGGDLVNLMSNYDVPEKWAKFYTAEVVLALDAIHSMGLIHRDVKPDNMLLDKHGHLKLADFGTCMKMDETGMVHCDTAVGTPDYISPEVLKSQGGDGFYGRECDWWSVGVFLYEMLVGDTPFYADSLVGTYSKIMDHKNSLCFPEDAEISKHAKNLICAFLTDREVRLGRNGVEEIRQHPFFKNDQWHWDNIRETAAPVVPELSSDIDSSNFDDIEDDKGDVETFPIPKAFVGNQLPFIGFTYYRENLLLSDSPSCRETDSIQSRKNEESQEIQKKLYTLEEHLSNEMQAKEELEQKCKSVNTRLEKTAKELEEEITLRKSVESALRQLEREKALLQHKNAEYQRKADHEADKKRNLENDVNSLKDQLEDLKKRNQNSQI
ROCK1, sequence (Q13464 1-535): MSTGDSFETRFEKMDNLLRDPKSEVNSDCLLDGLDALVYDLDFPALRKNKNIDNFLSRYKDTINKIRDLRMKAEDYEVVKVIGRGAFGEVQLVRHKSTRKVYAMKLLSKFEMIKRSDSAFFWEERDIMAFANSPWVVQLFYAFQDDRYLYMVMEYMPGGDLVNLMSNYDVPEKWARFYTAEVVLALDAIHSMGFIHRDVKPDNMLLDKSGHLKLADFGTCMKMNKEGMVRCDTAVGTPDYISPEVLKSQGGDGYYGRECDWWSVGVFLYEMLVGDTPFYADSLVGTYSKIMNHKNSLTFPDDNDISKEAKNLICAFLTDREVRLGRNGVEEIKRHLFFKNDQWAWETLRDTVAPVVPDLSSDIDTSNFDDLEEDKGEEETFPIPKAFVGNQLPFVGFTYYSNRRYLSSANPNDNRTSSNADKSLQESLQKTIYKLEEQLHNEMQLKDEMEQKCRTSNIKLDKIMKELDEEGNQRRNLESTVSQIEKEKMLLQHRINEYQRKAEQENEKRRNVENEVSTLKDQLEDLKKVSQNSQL

SMILES: CC(N)c1cccc(-c2nccc(Nc3ccc4[nH]ncc4c3)n2)c1 (stereo not drawn) [Example 147, N-(2-(3-(1-aminoethyl)phenyl)pyrimidin-4-yl)-1H-indazol-5-amine]
IC50 ([1]; Table 2, 12 uM ATP): > 5.5 µM
IC50 ([2]; Table 2, 5 uM ATP): > 2 µM

SMILES: CC(C)NC(=O)COc1cccc(-c2nc(Nc3ccc4[nH]ncc4c3)cc(C(F)(F)F)n2)c1 [Example 169]
IC50 ([1]; Table 2, 12 uM ATP): > 10 µM
IC50 ([2]; Table 2, 5 uM ATP): > 10 µM

SMILES: COc1ccc2c(c1)CN(c1nccc(Nc3ccc4[nH]ncc4c3)n1)C2 [Example 181, N-(2-(5-methoxyisoindolin-2-yl)pyrimidin-4-yl)-1H-indazol-5-amine]
secretion of IL-21 ([3]; FIG. 10 Panel A): inhibits
inhibition of IL-17 secretion ([3]; FIG. 10 Panel B): dose-dependent

SMILES: c1ccc2c(c1)CN(c1nccc(Nc3ccc4[nH]ncc4c3)n1)C2 [Example 182, N-(2-(isoindolin-2-yl)pyrimidin-4-yl)-1H-indazol-5-amine]
IC50 [2, 18]: > 10 µM

SMILES: COc1ccc2c(c1)CN(c1ccnc(Nc3ccc4[nH]ncc4c3)n1)C2 [Example 188, N-(4-(5-methoxyisoindolin-2-yl)pyrimidin-2-yl)-1H-indazol-5-amine]
IC50 [2, 18]: > 10 µM

SMILES: Clc1ccc2c(c1)CN(c1nccc(Nc3ccc4[nH]ncc4c3)n1)C2 [Example 190, N-(2-(5-chloroisoindolin-2-yl)pyrimidin-4-yl)-1H-indazol-5-amine]
IC50 [2, 18]: > 10 µM

SMILES: CC(C)NC(=O)COc1cccc(-c2nc(Nc3ccc4[nH]ncc4c3)c3ccccc3n2)c1 [KD025]
cervical LN T Cell IFNg ([5]; FIG. 32): decreased
development of chronic sclerodermatous cGVHD ([5]; i.p. once daily days 19-47): blocked the development
GVHD score ([5]; i.p. once daily days 19-47, weight lost, posture, activity, fur texture, skin integrity): significantly decreased
ability of Tregs to suppress IL-17 secretion in CD4+CD25- effector T cells [6]: significantly increased
phosphorylation of IFR4 and RORγT ([7]; separate experiment, FIG. 11C): reduced phosphorylation
phosphorylation of STAT3 ([7]; two designs: pre-treatment then anti-CD3/CD28, Th17-skewing 5 days then 3 hours treatment): significantly down-regulates
STAT3 phosphorylation in spleens [8]: significant reduction
STAT5 phosphorylation in spleens [8]: concurrent increase
protein levels of RORγt, IRF4 and Bcl6 in spleenocytes [8]: dose-dependent decrease
numbers of CD4+PD1HiCXCR5 Tfh cells in spleen [9]: reversed
numbers of germinal centers in spleen [9]: reversed
frequency of IFN-γ-producing cells [10, 19]: significantly reduced the frequencies
frequency of IL-17-producing cells [10, 19]: significantly reduced the frequencies
IFN-γ secretion [10, 20]: significantly down-regulated
IL-17 secretion [10, 20]: significantly down-regulated
IL-21 secretion [10, 20]: significantly down-regulated
percentage of Foxp3+ cells [11]: significantly increased
proliferation in response to TCR stimulation [12]: down-regulated their ability to proliferate
pulmonary function (resistance, elastance, compliance) ([13]; 100 mg/kg i.p. daily from day 28, tested day 56): significantly improved and normalized pulmonary function
antibody deposition in lungs ([13]; 150 mg/kg): essentially indistinguishable from samples from uninduced mice
collagen deposition in lungs ([13]; 150 mg/kg): essentially indistinguishable from samples from uninduced mice
effect on cGVHD lung pathology, dose dependence ([13]; 30, 100, 150 mg/kg): dose dependent
body weight ([13]; Example 216, FIG. 23): no effect
survival rates ([13]; FIG. 18): no effect
body weight ([13]; FIG. 18, 19): no effect
lung resistance [13, 21]: dose-dependent decrease
respiratory function [13, 21]: long-lasting improvement; also recorded: Partial improvement
induction of IL-17 secretion in PBMCs [14]: significantly inhibited in PBMCs isolated from four of five patients
induction of IL-21 secretion in PBMCs [14]: significantly inhibited in PBMCs from all five patients
plasma KD025 concentrations [15]: measurable and generally dose dependent
TGF-β-induced MLC phosphorylation [16]: down-regulates
TGF-β-induced STAT3 phosphorylation [16]: down-regulates
phosphorylation of SMAD2/3 [16]: remains intact
IFN-γ secretion [17]: less robust and significant only at high dose (10 μM)
IL-2 secretion [17]: observed only at the highest concentration (10 μM)
IL-17 secretion [17]: significantly inhibited
IL-21 secretion [17]: significantly inhibited

Other lines, results leading:

IC50 [2, 18]: > 10 µM
SMILES: COc1ccc2c(c1)CCN(c1nccc(Nc3ccc4[nH]ncc4c3)n1)C2 [Example 191, N-(2-(6-methoxy-3,4-dihydroisoquinolin-2(1H)-yl)pyrimidin-4-yl)-1H-indazol-5-amine]

IC50 [2, 18]: > 10 µM
SMILES: c1cc(Nc2ccc3[nH]ncc3c2)nc(N2CCc3sccc3C2)n1 [Example 192, N-(2-(6,7-dihydrothieno[3,2-c]pyridin-5(4H)-yl)pyrimidin-4-yl)-1H-indazol-5-amine]

IC50 [2, 18]: > 10 µM
SMILES: COc1ccc2c(c1)CN(c1cc(Nc3ccc4[nH]ncc4c3)ncn1)C2 [Example 193, N-(6-(5-methoxyisoindolin-2-yl)pyrimidin-4-yl)-1H-indazol-5-amine]

IC50 [4]: 0.13 to 0.18 µM
IC50 [2, 18]: > 10 µM
SMILES: COc1ccc2c(c1)CN(c1cc(Nc3ccc4[nH]ncc4c3)nc(C)n1)C2 [Example 194, N-(6-(5-methoxyisoindolin-2-yl)-2-methylpyrimidin-4-yl)-1H-indazol-5-amine]

IC50 [2, 18]: > 10 µM
SMILES: c1cc2c(cn1)CN(c1nccc(Nc3ccc4[nH]ncc4c3)n1)C2 [Example 195, N-(2-(1H-pyrrolo[3,4-c]pyridin-2(3H)-yl)pyrimidin-4-yl)-1H-indazol-5-amine]

IC50 [1, 18]: > 0.01 µM
SMILES: COc1ccc2c(c1)CN(c1nc(C)c(C)c(Nc3ccc4[nH]ncc4c3)n1)C2 [Example 196, N-(2-(5-methoxyisoindolin-2-yl)-5,6-dimethylpyrimidin-4-yl)-1H-indazol-5-amine]

IC50 [2, 18]: > 10 µM
SMILES: COc1ccc2c(c1)CN(c1nccc(Nc3ccc(-c4ccncc4)cc3)n1)C2 [Example 200, 2-(5-methoxyisoindolin-2-yl)-N-(4-(pyridin-4-yl)phenyl)pyrimidin-4-amine]
